Measured values taken from patent publication US20090131702A1, “METHOD FOR THE PRODUCTION OF METAL CARBOXYLATES AND THE METAL AMINOATE OR METAL HYDROXY ANALOGUE METHIONATE DERIVATIVES THEREOF, AND USE OF SAME AS GROWTH PROMOTERS IN ANIMAL FEED” (NOREL, S.A., priority 2003, published 2009).
Like-named read-outs stand apart in the source and are kept apart here. Marks after values point to notes of the source that are not given here.

What was measured:
[1] = broilers; for LW 21 d (live weight): day 21; for LW 42 d (live weight): day 42
[2] = broilers
Experimental: During the next 4 days, an investigation of the bioavailability of the copper was carried out. After fasting for 20 hours, the live weight per cage was recorded and the experimental feeds were supplied for 2 days, recording the consumption of feed.

[3] = Test in broilers: production parameters, zinc methioninate / formate / complex (Example 12); type: in vivo, broilers of the Ross strain; conditions: for MDC (mean daily consumption) / MDG (mean daily gain) / IC (index of conversion): 50 ppm of zinc added to base diet; for LW 21 d (live weight): day 21, 50 ppm of zinc added to base diet; for LW 42 d (live weight): day 42, 50 ppm of zinc added to base diet
Source text: Four experimental treatments were used, comprising the same basic diet supplemented with different sources of zinc:
(§1) Control of production parameters was effected at 21 and 42 days of age, recording the live weight and the consumption of feed per batch.

[4] = broilers; remark: listed apart in the source
[5] = Test in broilers: production parameters, copper methioninate / formate / complex (Example 13); type: in vivo, broilers of the Ross strain; conditions: for MDC (mean daily consumption) / MDG (mean daily gain) / IC (index of conversion): 25 ppm of copper added to base diet; for LW 21 d (live weight): day 21, 25 ppm of copper added to base diet; for LW 42 d (live weight): day 42, 25 ppm of copper added to base diet
Experimental: Four experimental treatments were used, comprising the same basic diet supplemented with different sources of copper:
The dose of copper was calculated taking into account the copper content of the ingredients and the copper requirements in the case of treatments T-0 to T-3.
as §1

[6] = Test of efficacy in piglets: production parameters, copper glycinate / formate / complex (Example 15); type: in vivo; conditions: 21-42 days, 125 ppm of copper added to base diet
Source text: (§2) Control of production parameters was effected at the end of the experiment, recording the live weight, the daily growth and the consumption of feed.

[7] = broilers; remark: listed apart in the source
[8] = Test of efficacy in piglets: production parameters, zinc glycinate / formate / complex (Example 14); type: in vivo; conditions: 21-50 days, 130 ppm of zinc added to base diet
Source text: The experimental period was 29 days.

[9] = Zinc concentration in the liver of piglets (Example 11); type: in vivo; conditions: for Liver zinc / Ratio Zn in liver/Zn in diet: end of 21-day experiment, 220 ppm of zinc added to base diet
Source text: At the end of the experiment, one male and one female were selected at random from each batch to take a specimen of liver tissue and determine the zinc content.

[10] = piglets, 220 ppm of zinc added to base diet; for LW 28 d (live weight): day 28; for LW 42 d (live weight): day 42
Experimental: 300 piglets were used (cross of Large White and Landrace), 50% males and 50% females, weaned at 21 days of age and housed in 30 pens with 10 animals in each (5 males and 5 females).
Five experimental treatments were used, comprising the same basic diet, to which different sources of zinc are added:
The zinc dose was calculated taking into account the zinc content of the ingredients of the feed and the maximum permitted dose (250 ppm of zinc in the finished feed) in the case of treatments T-0 to T-2, and the dose with promoter effect (2000 ppm) in the case of treatment T-3.
The experimental period was 21 days.
The experimental model was a design of random blocks, with 6 replications per treatment. Each replication comprised a batch of 10 animals.
as §2

[11] = 0-21 days, 20 ppm of copper added to base diet
[12] = 0-42 days, 20 ppm of copper added to base diet
[13] = 21-42 days, 20 ppm of copper added to base diet
[14] = 20 ppm of copper added to base diet
[15] = 43 to 46 days of age, 20 ppm of copper added to base diet
[16] = 43 to 46 days of age, 50 ppm of zinc added to base diet
[17] = 0-21 days, 150 ppm of copper added to base diet
[18] = 0-42 days, 150 ppm of copper added to base diet
[19] = 21-42 days, 150 ppm of copper added to base diet
[20] = 150 ppm of copper added to base diet
[21] = 43 to 46 days of age, 150 ppm of copper added to base diet
[22] = 43 to 46 days of age, 25 ppm of copper added to base diet

Copper butyrate
IC (index of conversion) [1, 11]: 1.35 b
MDC (mean daily consumption) [1, 11]: 48.9 g/day
MDG (mean daily gain) [1, 11]: 36.2 b g
IC (index of conversion) [1, 12]: 1.76 b
MDC (mean daily consumption) [1, 12]: 97.2 g/day
MDG (mean daily gain) [1, 12]: 55.1 b g
IC (index of conversion) [1, 13]: 1.94 b
MDC (mean daily consumption) [1, 13]: 147.2 g/day
MDG (mean daily gain) [1, 13]: 75.9 b g
LW 21 d (live weight) [1, 14]: 763 b g
LW 42 d (live weight) [1, 14]: 2358 b g
Copper excreted [2, 15]: 2.99^a mg
Copper ingested [2, 15]: 7.3^a mg
copper bioavailability (in words) ([2]; 20 ppm of copper): highest bioavailability
Bioavailability ([2]; copper, 43 to 46 days of age, 20 ppm of copper added to base diet): 59.09^b %

O=S(=O)([O-])[O-].[Zn+2] [zinc sulfate]
MDC (mean daily consumption) ([3]; 0-21 days): 47.3 g/day
MDG (mean daily gain) ([3]; 0-21 days): 33.6 a g
MDC (mean daily consumption) ([3]; 0-42 days): 101.7 g/day
MDG (mean daily gain) ([3]; 0-42 days): 53.5 a g
MDC (mean daily consumption) ([3]; 21-42 days): 156.3 g/day
MDG (mean daily gain) ([3]; 21-42 days): 73.6 a g
LW 21 d (live weight) [3]: 705 a g
LW 42 d (live weight) [3]: 2250 a g
Zinc excreted [4, 16]: 8.34^a mg
Zinc ingested [4, 16]: 12.4^a mg

zinc methioninate
IC (index of conversion) ([3]; 0-21 days): 1.35 b
MDC (mean daily consumption) ([3]; 0-21 days): 48.1 g/day
MDG (mean daily gain) ([3]; 0-21 days): 35.7 b g
IC (index of conversion) ([3]; 0-42 days): 1.82 b
MDC (mean daily consumption) ([3]; 0-42 days): 101.7 g/day
MDG (mean daily gain) ([3]; 0-42 days): 55.7 b g
IC (index of conversion) ([3]; 21-42 days): 2.05 b
MDC (mean daily consumption) ([3]; 21-42 days): 155.2 g/day
MDG (mean daily gain) ([3]; 21-42 days): 75.7 b g
effect on production parameters (in words) ([3]; 50 ppm of zinc, control T-0 = zinc sulfate): same effect
LW 21 d (live weight) [3]: 750 b g
LW 42 d (live weight) [3]: 2340 b g
Zinc excreted [4, 16]: 7.35^b mg
Zinc ingested [4, 16]: 12.6^a mg
zinc bioavailability (in words) ([4]; 50 ppm of zinc): highest bioavailability
Bioavailability ([4]; zinc, 43 to 46 days of age, 50 ppm of zinc added to base diet): 42.6^b %

O=S(=O)([O-])[O-].[Cu+2] [copper sulfate]
MDC (mean daily consumption) ([5]; 0-21 days): 45.3 g/day
MDG (mean daily gain) ([5]; 0-21 days): 31.6 a g
MDC (mean daily consumption) ([5]; 0-42 days): 102.7 g/day
MDG (mean daily gain) ([5]; 0-42 days): 51.6 a g
MDC (mean daily consumption) ([5]; 21-42 days): 160.1 g/day
MDG (mean daily gain) ([5]; 21-42 days): 71.6 a g
LW 21 d (live weight) [5]: 695 a g
LW 42 d (live weight) [5]: 2200 a g
GLW 21-42 d (gain in live weight) [6]: 6.5 a kg
MDC (mean daily consumption) [6]: 650.5 g/day
MDG (mean daily gain) [6]: 309.5 a g
MDC (mean daily consumption) [1, 11]: 48.9 g/day
MDG (mean daily gain) [1, 11]: 34.2 a g
MDC (mean daily consumption) [1, 17]: 49.7 g/day
MDG (mean daily gain) [1, 17]: 35.9 b g
MDC (mean daily consumption) [1, 12]: 98.2 g/day
MDG (mean daily gain) [1, 12]: 50.6 a g
MDC (mean daily consumption) [1, 18]: 99.5 g/day
MDG (mean daily gain) [1, 18]: 55.2 b g
MDC (mean daily consumption) [1, 13]: 149.3 g/day
MDG (mean daily gain) [1, 13]: 69.2 a g
MDC (mean daily consumption) [1, 19]: 154.2 g/day
MDG (mean daily gain) [1, 19]: 76.7 b g
LW 21 d (live weight) [1, 14]: 716 a g
LW 21 d (live weight) [1, 20]: 756 b g
LW 42 d (live weight) [1, 14]: 2172 a g
LW 42 d (live weight) [1, 20]: 2362 b g
Copper excreted [2, 15]: 4.08^a mg
Copper ingested [2, 15]: 7.3^a mg
Copper excreted [2, 21]: 397.3^b mg
Copper ingested [2, 21]: 652.4^b mg
Copper excreted [7, 22]: 20.4^a mg
Copper ingested [7, 22]: 67.98^a mg

NCC(=O)[O-].NCC(=O)[O-].[Zn+2] [zinc glycinate]
GLW 21-50 d (gain in live weight) [8]: 12.75 b kg
IC (index of conversion) [8]: 1.68 b
MDC (mean daily consumption) [8]: 741.3 g/day
MDG (mean daily gain) [8]: 439.6 b g

Zinc butyrate
ratio of zinc in the liver to zinc in the diet (in words) ([9]; 220 ppm of zinc): highest ratio
Liver zinc [9]: 56.3a μg/g
Ratio Zn in liver/Zn in diet [9]: 22.3bc
IC (index of conversion) ([10]; 21-28 days): 1.09 b
MDC (mean daily consumption) ([10]; 21-28 days): 286.3 g/day
MDG (mean daily gain) ([10]; 21-28 days): 262.9 ab g
IC (index of conversion) ([10]; 21-42 days): 1.45 b
MDC (mean daily consumption) ([10]; 21-42 days): 741.3 g/day
MDG (mean daily gain) ([10]; 21-42 days): 509.6 b g
LW 28 d (live weight) [10]: 8.99 B kg
LW 42 d (live weight) [10]: 14.15 b kg

copper methioninate
IC (index of conversion) ([5]; 0-21 days): 1.36 b
MDC (mean daily consumption) ([5]; 0-21 days): 47.1 g/day
MDG (mean daily gain) ([5]; 0-21 days): 34.7 b g
IC (index of conversion) ([5]; 0-42 days): 1.86 b
MDC (mean daily consumption) ([5]; 0-42 days): 100.5 g/day
MDG (mean daily gain) ([5]; 0-42 days): 54.0 b g
IC (index of conversion) ([5]; 21-42 days): 2.08 b
MDC (mean daily consumption) ([5]; 21-42 days): 154.0 g/day
MDG (mean daily gain) ([5]; 21-42 days): 73.8 b g
effect on production parameters (in words) ([5]; 25 ppm of copper, control T-0 = copper sulfate): same effect
LW 21 d (live weight) [5]: 750 b g
LW 42 d (live weight) [5]: 2300 b g
Copper excreted [7, 22]: 29.5^b mg
Copper ingested [7, 22]: 69.3^a mg
copper bioavailability (in words) ([7]; 25 ppm of copper): highest bioavailability
Bioavailability ([7]; copper, 43 to 46 days of age, 25 ppm of copper added to base diet): 42.6^b %

[O]=[Zn] [zinc oxide]
liver zinc concentration (in words) ([9]; dose of 220 ppm): lowest
Liver zinc [9]: 47.63a μg/g
Ratio Zn in liver/Zn in diet [9]: 19.8ab
GLW 21-50 d (gain in live weight) [8]: 11.40 a kg
IC (index of conversion) [8]: 2.02 a
MDC (mean daily consumption) [8]: 795.3 g/day
MDG (mean daily gain) [8]: 393.1 a g
IC (index of conversion) ([10]; 21-28 days): 1.32 a
MDC (mean daily consumption) ([10]; 21-28 days): 321.7 g/day
MDG (mean daily gain) ([10]; 21-28 days): 244.5 A g
IC (index of conversion) ([10]; 21-42 days): 1.67 a
MDC (mean daily consumption) ([10]; 21-42 days): 795.3 g/day
MDG (mean daily gain) ([10]; 21-42 days): 475.3 a g
LW 28 d (live weight) [10]: 8.41 A kg
LW 42 d (live weight) [10]: 13.11 a kg

NCC(=O)[O-].NCC(=O)[O-].[Cu+2] [copper glycinate]
GLW 21-42 d (gain in live weight) [6]: 7.25 b kg
IC (index of conversion) [6]: 1.91 b
MDC (mean daily consumption) [6]: 660.5 g/day
MDG (mean daily gain) [6]: 345.0 b g
